Experimental data as given in patent US20080124410A1, “Use Of Lavender Oil For The Prophylaxis And Treatment Of Neurasthenia, Somatization Disorders And Other Stress-Associated Diseases” (priority 2004, published 2008).

System: rats
Experiment: Forced Swimm Stress model, immobilization period
Assay type: in vivo
Conditions: 30 mg/kg perorally, once a day for nine days
Method: The stress-reducing effects of lavender oil was tested in rats by the so-called “Forced Swimm Stress” model (R. D. Porsolt et al. (1978), Eur. J. Pharmacol. 47, 379-391). The stress reaction experimentally elicited by this test in rats is a recognized method for testing stress-induced behaviour. The principle of the test system used involves that rats being put into a water-filled glass cylinder which they can not leave independently, fall into a still state after a short period of swimming (immobilization period). This immobility is interpreted as a reaction to recognizing the hopelessness of the situation (cf. Example 2).
In order to test the stress-reducing effects of lavender oil, rats were treated over a period of nine days in total with differently high dosages of lavender oil according to European Pharmacopoeia, edition 4 (WS® 1265) once a day. For comparison purposes some animals were treated either with the tricyclic antidepressive agent imipramine used in stress therapy or with a control solution without an active ingredient. On the seventh day of the treatment, the animals were placed into the water-filled glass cylinder for 15 minutes for familiarization purposes. At the final day of the treatment, the animals were placed into the graduated cylinder again for a period of 5 minutes and the period of immobility was measured as a measure of the stress reaction.

Compound: CN(C)CCCN1c2ccccc2CCc2ccccc21 [imipramine]
- immobilization period: 48 ± 6 s
- inhibition (versus control): 67%
